Measured values taken from patent publication US9328083B2, “2-aminated methylene or 2-esterified methylene tanshinone derivatives, and preparation method and application thereof” (HANGZHOU BENSHENG PHARMACEUTICAL CO., LTD., priority 2011, dated 2016).
Values after ≈ are worked out from the molar mass of the structure shown.

How the values were obtained:
[1] = tested on: RPMI8226 (multiple myeloma); test: MTT growth inhibition of multiple myeloma cells, 72 h; type: cell-based, human; conditions: Homo sapiens, RPMI 8226, 72 h; for IC50: read-out: IC50; for IC90: read-out: IC90
How it was run: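 RPMI8226 myeloma cells, 6000 per well in 1640 medium with 10% FBS, exposed to compounds at a range of concentrations (diluted from 10 mg/mL DMSO stock) for 72 h at 37° C, 5% CO2. Viable cells then determined by MTT.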

PC-3 (prostate cancer) = test: MTT growth inhibition of human solid tumor cells, 72 h; type: cell-based; conditions: Homo sapiens, PC-3, 72 h; for IC50: read-out: IC50; for IC90: read-out: IC90
How it was run: (§1)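 Tanshinone I and its aminated or esterified methylene derivatives were tested on cells grown in 10% FBS high-glucose DMEM, seeded at 4000 per well and incubated at 37° C with 5% CO2 for 24 h before treatment.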

[2] = tested on: Hep G2 (human liver cancer cell); test: as above; type: cell-based; conditions: Homo sapiens, HepG2, Hep G2, 72 h; for IC50: read-out: IC50; for IC90: read-out: IC90
How it was run: as §1

[3] = tested on: CNE (nasopharyngeal carcinoma cell); test: as above; type: cell-based; conditions: Homo sapiens; for IC50: read-out: IC50; for IC90: read-out: IC90
How it was run: as §1

[4] = tested on: PANC-1 (pancreatic cancer); test: as above; type: cell-based; conditions: Homo sapiens, PANC-1, 72 h; for IC50: read-out: IC50; for IC90: read-out: IC90
How it was run: as §1

[5] = tested on: Hela (human cervical cancer cell); test: as above; type: cell-based; conditions: Homo sapiens, HeLa, 72 h; for IC50: read-out: IC50; for IC90: read-out: IC90
How it was run: as §1

A549 (human lung cancer) = test: as above; type: cell-based; conditions: Homo sapiens, A549, 72 h; for IC50: read-out: IC50; for IC90: read-out: IC90
How it was run: as §1

[6] = tested on: U87 MG (malignant glioma cell); test: as above; type: cell-based; conditions: Homo sapiens, U-87 MG, U87-MG, 72 h; for IC50: read-out: IC50; for IC90: read-out: IC90
How it was run: as §1

[7] = tested on: MGC 803 (human gastric cancer cell); test: as above; type: cell-based; conditions: Homo sapiens, MGC-803, 72 h; for IC50: read-out: IC50; for IC90: read-out: IC90
How it was run: as §1

[8] = tested on: RKO (human colon adenocarcinoma cell); test: as above; type: cell-based; conditions: Homo sapiens; for IC50: read-out: IC50; for IC90: read-out: IC90
How it was run: as §1

[9] = tested on: Becap37 (human breast cancer cell); test: as above; type: cell-based; conditions: Homo sapiens, Becap-37, 72 h; for IC50: read-out: IC50; for IC90: read-out: IC90
How it was run: as §1

[10] = tested on: Hep-2 (laryngeal carcinoma); test: as above; type: cell-based; conditions: Homo sapiens, HEp-2, 72 h; for IC50: read-out: IC50; for IC90: read-out: IC90
How it was run: as §1

[11] = tested on: SK-OV-3 (ovarian cancer cell); test: as above; type: cell-based; conditions: Homo sapiens, SK-OV-3, 72 h; for IC50: read-out: IC50; for IC90: read-out: IC90
How it was run: as §1

MG63 (osteosarcoma) = test: as above; type: cell-based; conditions: Homo sapiens, MG-63, 72 h; for IC50: read-out: IC50; for IC90: read-out: IC90
How it was run: as §1

[12] = tested on: CaES-17 (esophageal cancer cell); test: as above; type: cell-based; conditions: Homo sapiens, CaEs17, CaEs-17, 72 h; for IC50: read-out: IC50; for IC90: read-out: IC90
How it was run: as §1

[13] = tested on: Jurkat (acute lymphoblastic leukemia, ALL); test: MTT growth inhibition of leukemia cells, 72 h; type: cell-based, human; conditions: Homo sapiens, 72 h; for IC50: read-out: IC50; for IC90: read-out: IC90
How it was run: (§2)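 Viable cell concentration is determined by MTT after 72 h exposure at 37 °C in 5% CO2. Cells (6000 per well) grow in RPMI-1640 containing 10% fetal bovine serum, and graded compound concentrations are added one day after seeding.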

[14] = tested on: K562/adr (drug-resistant, chronic myeloid leukemia, CML); test: MTT growth inhibition of leukemia cells, 72 h; type: cell-based, human; conditions: Homo sapiens, K562/Adr; for IC50: read-out: IC50; for IC90: read-out: IC90
How it was run: as §2

[15] = tested on: H9 (acute lymphoblastic leukemia, ALL); test: MTT growth inhibition of leukemia cells, 72 h; type: cell-based, human; conditions: Homo sapiens, H9, 72 h; for IC50: read-out: IC50; for IC90: read-out: IC90
How it was run: as §2

[16] = tested on: Kasumi-1 (acute myeloid leukemia M2 type, AML-M2); test: MTT growth inhibition of leukemia cells, 72 h; type: cell-based, human; conditions: Homo sapiens, Kasumi-1, 72 h; for IC50: read-out: IC50; for IC90: read-out: IC90
How it was run: as §2

[17] = tested on: NB4 (acute promyelocytic leukemia, AML); test: MTT growth inhibition of leukemia cells, 72 h; type: cell-based, human; conditions: Homo sapiens, NB4, 72 h; for IC50: read-out: IC50; for IC90: read-out: IC90
How it was run: as §2

| Compound | IC50 [1] | IC90 [1] | IC50 (PC-3 (prostate cancer)) | IC90 (PC-3 (prostate cancer)) | IC50 [2] | IC90 [2] | IC50 [3] | IC90 [3] | IC50 [4] | IC90 [4] | IC50 [5] | IC90 [5] | IC50 (A549 (human lung cancer)) | IC90 (A549 (human lung cancer)) | IC50 [6] | IC90 [6] | IC50 [7] | IC90 [7] | IC50 [8] | IC90 [8] | further results |
| --- | --- | --- | --- | --- | --- | --- | --- | --- | --- | --- | --- | --- | --- | --- | --- | --- | --- | --- | --- | --- | --- |
| CC[N+](C)(Cc1ccc(F)c(Cl)c1)Cc1oc2c(c1C)C(=O)C(=O)c1c-2ccc2c(C)cccc12 (stereo not drawn) [BS-TA-50] | 3.86 µg/mL | 16 µg/mL | 10.7 µg/mL | > 16 µg/mL | > 16 µg/mL | > 16 µg/mL | 3.87 µg/mL | > 16 µg/mL | 4.24 µg/mL | > 16 µg/mL | 7.78 µg/mL | > 16 µg/mL | 8.9 µg/mL | > 16 µg/mL | 4.67 µg/mL | > 16 µg/mL | 8.91 µg/mL | > 16 µg/mL | 2.5 µg/mL | > 16 µg/mL | IC50 [9]: 8.1 µg/mL; IC90 [9]: > 16 µg/mL; IC50 [10]: 13.7 µg/mL; IC90 [10]: > 16 µg/mL; IC50 [11]: > 16 µg/mL; IC90 [11]: > 16 µg/mL; IC50 (MG63 (osteosarcoma)): 1.67 µg/mL; IC90 (MG63 (osteosarcoma)): > 16 µg/mL; IC50 [12]: 8.45 µg/mL; IC90 [12]: > 16 µg/mL; IC50 [13]: 4.79 µg/mL; IC90 [13]: > 16 µg/mL; IC50 [14]: 11.2 µg/mL; IC90 [14]: > 16 µg/mL; IC50 [15]: 6.25 µg/mL; IC90 [15]: 15.9 µg/mL; IC50 [16]: 5.03 µg/mL; IC90 [16]: > 16 µg/mL; IC50 [17]: 0.99 µg/mL; IC90 [17]: 7 µg/mL |
| Cc1c(COC(=O)c2ccnc(Cl)c2)oc2c1C(=O)C(=O)c1c-2ccc2c(C)cccc12 [BS-TA-A01] | 3.39 µg/mL (≈ 7.6 µM) | 7.85 µg/mL (≈ 17.6 µM) | 5.32 µg/mL (≈ 11.9 µM) | 12.6 µg/mL (≈ 28.2 µM) | 4.82 µg/mL (≈ 10.8 µM) | 16 µg/mL (≈ 35.9 µM) | 4.1 µg/mL (≈ 9.2 µM) | 45 µg/mL (≈ 101 µM) | 3.31 µg/mL (≈ 7.42 µM) | 12 µg/mL (≈ 27 µM) | 4.5 µg/mL (≈ 10.1 µM) | 14.9 µg/mL (≈ 33.3 µM) | 6.23 µg/mL (≈ 14 µM) | > 16 µg/mL | 5.71 µg/mL (≈ 12.8 µM) | 14.2 µg/mL (≈ 31.7 µM) | 5.38 µg/mL (≈ 12.1 µM) | 16 µg/mL (≈ 35.9 µM) | 1.46 µg/mL (≈ 3.27 µM) | 13.4 µg/mL (≈ 30.1 µM) | IC50 [9]: 4.74 µg/mL (≈ 10.6 µM); IC90 [9]: 10.8 µg/mL (≈ 24.1 µM); IC50 [10]: 3.96 µg/mL (≈ 8.88 µM); IC90 [10]: 19.1 µg/mL (≈ 42.9 µM); IC50 [11]: > 16 µg/mL; IC90 [11]: > 16 µg/mL; IC50 (MG63 (osteosarcoma)): 2.87 µg/mL (≈ 6.44 µM); IC90 (MG63 (osteosarcoma)): 14 µg/mL (≈ 31.4 µM); IC50 [12]: 6.36 µg/mL (≈ 14.3 µM); IC90 [12]: 12.7 µg/mL (≈ 28.4 µM); IC50 [13]: 3 µg/mL (≈ 6.73 µM); IC90 [13]: 9.27 µg/mL (≈ 20.8 µM); IC50 [14]: 2.33 µg/mL (≈ 5.23 µM); IC90 [14]: 6.24 µg/mL (≈ 14 µM); IC50 [15]: 3.09 µg/mL (≈ 6.93 µM); IC90 [15]: 10.4 µg/mL (≈ 23.2 µM); IC50 [16]: 1.75 µg/mL (≈ 3.93 µM); IC90 [16]: 3.91 µg/mL (≈ 8.77 µM); IC50 [17]: 0.99 µg/mL (≈ 2.22 µM); IC90 [17]: 3.97 µg/mL (≈ 8.9 µM) |
| Cc1c(CN2CCCN(C)CC2)oc2c1C(=O)C(=O)c1c-2ccc2c(C)cccc12 [BS-TA-B12] | 3.72 µg/mL (≈ 9.24 µM) | 7.13 µg/mL (≈ 17.7 µM) | 9.3 µg/mL (≈ 23.1 µM) | 11.2 µg/mL (≈ 27.8 µM) | 3.8 µg/mL (≈ 9.44 µM) | 7.96 µg/mL (≈ 19.8 µM) | 0.45 µg/mL (≈ 1.12 µM) | 0.62 µg/mL (≈ 1.54 µM) | 1.06 µg/mL (≈ 2.63 µM) | 4.16 µg/mL (≈ 10.3 µM) | 1.46 µg/mL (≈ 3.63 µM) | 3.58 µg/mL (≈ 8.89 µM) | 1.65 µg/mL (≈ 4.1 µM) | 4.33 µg/mL (≈ 10.8 µM) | 1.16 µg/mL (≈ 2.88 µM) | 3.4 µg/mL (≈ 8.45 µM) | 2.48 µg/mL (≈ 6.16 µM) | 5.05 µg/mL (≈ 12.5 µM) | 0.7 µg/mL (≈ 1.74 µM) | 5.26 µg/mL (≈ 13.1 µM) | IC50 [9]: 3.34 µg/mL (≈ 8.3 µM); IC90 [9]: 7.38 µg/mL (≈ 18.3 µM); IC50 [10]: 4.01 µg/mL (≈ 9.96 µM); IC90 [10]: 9.08 µg/mL (≈ 22.6 µM); IC50 [11]: 2.53 µg/mL (≈ 6.29 µM); IC90 [11]: 3.84 µg/mL (≈ 9.54 µM); IC50 (MG63 (osteosarcoma)): 3.37 µg/mL (≈ 8.37 µM); IC90 (MG63 (osteosarcoma)): 5.49 µg/mL (≈ 13.6 µM); IC50 [12]: 0.73 µg/mL (≈ 1.81 µM); IC90 [12]: 1.97 µg/mL (≈ 4.89 µM); IC50 [13]: 1.78 µg/mL (≈ 4.42 µM); IC90 [13]: 5.91 µg/mL (≈ 14.7 µM); IC50 [14]: 1.5 µg/mL (≈ 3.73 µM); IC90 [14]: 2.79 µg/mL (≈ 6.93 µM); IC50 [15]: 4.11 µg/mL (≈ 10.2 µM); IC90 [15]: 10.5 µg/mL (≈ 26.1 µM); IC50 [16]: 0.89 µg/mL (≈ 2.21 µM); IC90 [16]: 1.9 µg/mL (≈ 4.72 µM); IC50 [17]: 0.94 µg/mL (≈ 2.34 µM); IC90 [17]: 1.9 µg/mL (≈ 4.72 µM) |
